Measurements taken from PubChem BioAssay AID2060617 (Molecular Pharmacology Branch, DTP, NCI, 2025).

Tested on: 485368-065-R4-J2-PDC spheroids with HUVEC/MSC, viability
Assay: Anticancer human tumor 485368-065-R4-J2-PDC patient-derived pancreatic carcinoma cell line growth inhibition [CLK]
Conditions: for IC50: curve of first compound; for viability, T/C: stronger effect = lower value
In short: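 Patient-derived tumor cells grown as complex spheroids with HUVEC endothelial cells and mesenchymal stem cells, treated with drug combinations. Concentrations descend in half-log steps from near clinical Cmax, or from 10 microM if Cmax unknown.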

[1] = second compound 0.0316 µM, first compound 0.0316 µM
[2] = second compound 0.0316 µM, first compound 0.1 µM
[3] = second compound 0.1 µM, first compound 0.0316 µM
[4] = second compound 0.1 µM, first compound 0.1 µM
[5] = second compound 0.316 µM, first compound 0.0316 µM
[6] = second compound 0.316 µM, first compound 0.1 µM
[7] = second compound 1 µM, first compound 0.0316 µM
[8] = second compound 1 µM, first compound 0.1 µM
[9] = second compound 3.16 µM, first compound 0.0316 µM
[10] = second compound 3.16 µM, first compound 0.1 µM
[11] = second compound 10 µM, first compound 0.0316 µM
[12] = second compound 10 µM, first compound 0.1 µM
[13] = second compound 0.0316 µM, first compound 0.316 µM
[14] = second compound 0.0316 µM, first compound 1 µM
[15] = second compound 0.0316 µM, first compound 3.16 µM
[16] = second compound 0.0316 µM, first compound 10 µM
[17] = second compound 0.1 µM, first compound 0.316 µM
[18] = second compound 0.1 µM, first compound 1 µM
[19] = second compound 0.1 µM, first compound 3.16 µM
[20] = second compound 0.1 µM, first compound 10 µM
[21] = second compound 0.316 µM, first compound 0.316 µM
[22] = second compound 0.316 µM, first compound 1 µM
[23] = second compound 0.316 µM, first compound 3.16 µM
[24] = second compound 0.316 µM, first compound 10 µM
[25] = second compound 1 µM, first compound 0.316 µM
[26] = second compound 1 µM, first compound 1 µM
[27] = second compound 1 µM, first compound 3.16 µM
[28] = second compound 1 µM, first compound 10 µM
[29] = second compound 3.16 µM, first compound 0.316 µM
[30] = second compound 3.16 µM, first compound 1 µM
[31] = second compound 3.16 µM, first compound 3.16 µM
[32] = second compound 3.16 µM, first compound 10 µM
[33] = second compound 10 µM, first compound 0.316 µM
[34] = second compound 10 µM, first compound 1 µM
[35] = second compound 10 µM, first compound 3.16 µM
[36] = second compound 10 µM, first compound 10 µM
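Further: spheroids exposed to compounds for seven days.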
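Wherever viability, T/C is given: 100% = DMSO vehicle control wells.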

## Cn1ncnc1[C@H]1c2n[nH]c(=O)c3cc(F)cc(c23)N[C@@H]1c1ccc(F)cc1 + CN1CCN(c2cc(C(=O)Nc3cc4cc(-c5cnn(C)c5)ccc4cn3)ccn2)CC1
Second compound 0.0316 µM
  IC50: > 100 nM
Second compound 0.1 µM
  IC50: > 100 nM
Second compound 0.316 µM
  IC50: 88.6 nM
Second compound 1 µM
  IC50: < 0.316 nM
Second compound 3.16 µM
  IC50: < 0.316 nM
Second compound 10 µM
  IC50: < 0.316 nM
Second compound 0.0316 µM, first compound 0.000316 µM
  viability, T/C: 99.9%
Second compound 0.0316 µM, first compound 0.001 µM
  viability, T/C: 107%
Second compound 0.0316 µM, first compound 0.00316 µM
  viability, T/C: 105%
Second compound 0.0316 µM, first compound 0.01 µM
  viability, T/C: 105%
[1]
  viability, T/C: 109%
[2]
  viability, T/C: 88.7%
Second compound 0.1 µM, first compound 0.000316 µM
  viability, T/C: 108%
Second compound 0.1 µM, first compound 0.001 µM
  viability, T/C: 112%
Second compound 0.1 µM, first compound 0.00316 µM
  viability, T/C: 119%
Second compound 0.1 µM, first compound 0.01 µM
  viability, T/C: 109%
[3]
  viability, T/C: 96.6%
[4]
  viability, T/C: 75.9%
Second compound 0.316 µM, first compound 0.000316 µM
  viability, T/C: 85.2%
Second compound 0.316 µM, first compound 0.001 µM
  viability, T/C: 87.8%
Second compound 0.316 µM, first compound 0.00316 µM
  viability, T/C: 84.1%
Second compound 0.316 µM, first compound 0.01 µM
  viability, T/C: 72.2%
[5]
  viability, T/C: 55.9%
[6]
  viability, T/C: 49.2%
Second compound 1 µM, first compound 0.000316 µM
  viability, T/C: 1.46%
Second compound 1 µM, first compound 0.001 µM
  viability, T/C: 0.88%
Second compound 1 µM, first compound 0.00316 µM
  viability, T/C: 1.83%
Second compound 1 µM, first compound 0.01 µM
  viability, T/C: 0.77%
[7]
  viability, T/C: 1.6%
[8]
  viability, T/C: 1.69%
Second compound 3.16 µM, first compound 0.000316 µM
  viability, T/C: 1%
Second compound 3.16 µM, first compound 0.001 µM
  viability, T/C: 1.76%
Second compound 3.16 µM, first compound 0.00316 µM
  viability, T/C: 0.88%
Second compound 3.16 µM, first compound 0.01 µM
  viability, T/C: 1.07%
[9]
  viability, T/C: 1.7%
[10]
  viability, T/C: 1.76%
Second compound 10 µM, first compound 0.000316 µM
  viability, T/C: 2.24%
Second compound 10 µM, first compound 0.001 µM
  viability, T/C: 1.19%
Second compound 10 µM, first compound 0.00316 µM
  viability, T/C: 1.54%
Second compound 10 µM, first compound 0.01 µM
  viability, T/C: 2.1%
[11]
  viability, T/C: 2.02%
[12]
  viability, T/C: 1.77%

## Nc1ccn(C2OC(CO)C(O)C2(F)F)c(=O)n1 (stereo unspecified) + CN1CCN(c2cc(C(=O)Nc3cc4cc(-c5cnn(C)c5)ccc4cn3)ccn2)CC1
Second compound 0.0316 µM
  IC50: < 31.6 nM
Second compound 0.1 µM
  IC50: < 31.6 nM
Second compound 0.316 µM
  IC50: < 31.6 nM
Second compound 1 µM
  IC50: < 31.6 nM
Second compound 3.16 µM
  IC50: < 31.6 nM
Second compound 10 µM
  IC50: < 31.6 nM
[1]
  viability, T/C: 48.5%
[2]
  viability, T/C: 32.7%
[13]
  viability, T/C: 24.1%
[14]
  viability, T/C: 24.2%
[15]
  viability, T/C: 25.3%
[16]
  viability, T/C: 21.6%
[3]
  viability, T/C: 39.2%
[4]
  viability, T/C: 21.1%
[17]
  viability, T/C: 19.5%
[18]
  viability, T/C: 16.6%
[19]
  viability, T/C: 16.6%
[20]
  viability, T/C: 13.8%
[5]
  viability, T/C: 28.5%
[6]
  viability, T/C: 16.6%
[21]
  viability, T/C: 14.1%
[22]
  viability, T/C: 14.9%
[23]
  viability, T/C: 14.1%
[24]
  viability, T/C: 12.8%
[7]
  viability, T/C: 0.77%
[8]
  viability, T/C: 2.15%
[25]
  viability, T/C: 3.11%
[26]
  viability, T/C: 1.96%
[27]
  viability, T/C: 2.6%
[28]
  viability, T/C: 3.01%
[9]
  viability, T/C: 1.85%
[10]
  viability, T/C: 1.43%
[29]
  viability, T/C: 2.71%
[30]
  viability, T/C: 4.76%
[31]
  viability, T/C: 2.68%
[32]
  viability, T/C: 5.26%
[11]
  viability, T/C: 1.32%
[12]
  viability, T/C: 2.34%
[33]
  viability, T/C: 1.93%
[34]
  viability, T/C: 2.61%
[35]
  viability, T/C: 2.98%
[36]
  viability, T/C: 2.55%

## O=c1[nH]cc(F)c(=O)[nH]1 + CN1CCN(c2cc(C(=O)Nc3cc4cc(-c5cnn(C)c5)ccc4cn3)ccn2)CC1
Second compound 0.0316 µM
  IC50: > 10000 nM
Second compound 0.1 µM
  IC50: > 10000 nM
Second compound 0.316 µM
  IC50: > 10000 nM
Second compound 1 µM
  IC50: < 31.6 nM
Second compound 3.16 µM
  IC50: < 31.6 nM
Second compound 10 µM
  IC50: < 31.6 nM
[1]
  viability, T/C: 99.3%
[2]
  viability, T/C: 108%
[13]
  viability, T/C: 102%
[14]
  viability, T/C: 112%
[15]
  viability, T/C: 99.6%
[16]
  viability, T/C: 82%
[3]
  viability, T/C: 106%
[4]
  viability, T/C: 114%
[17]
  viability, T/C: 115%
[18]
  viability, T/C: 110%
[19]
  viability, T/C: 114%
[20]
  viability, T/C: 81.8%
[5]
  viability, T/C: 90%
[6]
  viability, T/C: 89.7%
[21]
  viability, T/C: 87.6%
[22]
  viability, T/C: 91.8%
[23]
  viability, T/C: 101%
[24]
  viability, T/C: 62%
[7]
  viability, T/C: 1.1%
[8]
  viability, T/C: 1.31%
[25]
  viability, T/C: 0.78%
[26]
  viability, T/C: 0.63%
[27]
  viability, T/C: 0.79%
[28]
  viability, T/C: 1.51%
[9]
  viability, T/C: 1.14%
[10]
  viability, T/C: 2.13%
[29]
  viability, T/C: 1.09%
[30]
  viability, T/C: 1.94%
[31]
  viability, T/C: 1.84%
[32]
  viability, T/C: 2%
[11]
  viability, T/C: 1.01%
[12]
  viability, T/C: 2.05%
[33]
  viability, T/C: 2.31%
[34]
  viability, T/C: 1.29%
[35]
  viability, T/C: 1.06%
[36]
  viability, T/C: 1.21%
